Assay results from patent US20220193025A1, “USE OF DIANHYDROHEXITOL TO ELIMINATE THE COSMETIC EFFECTS OF ACNE, DANDRUFF AND BAD ODORS” (ROQUETTE FRERES, priority 2019, published 2022).

Key:
[1] = system: Propionobacterium acnes strain; assay: Example 1: microbial population count over 28 days after contamination (microtiter method, TTC); format: cell-based; details: for Number of colony forming strains after: 24 h / Number of colony forming strains after: 7 days / Number of colony forming strains after: 14 days / Number of colony forming strains after: 21 days / Number of colony forming strains after: 28 days: 22° C.
Protocol: The samples are prepared under sterile conditions and deposited in microplates (2-ml wells) with the concentrations hereunder. Two analysis controls were produced: a positive control corresponding to 0.5% Phenonip®; a negative control consisting of 0.85% physiological saline solution. Samples and controls are contaminated by a Propionobacterium acnes bacterial strain with around 1.43×10^5 to 4.15×10^5 colony forming units per milliliter, denoted cfu/ml. After contamination, the samples are carefully mixed by suction-discharge cycles in order to ensure a uniform distribution of the microorganism. The whole is incubated at 22° C. during 28 days. The microbial population is sampled and counted at 24 hours, 7, 14, 21 and 28 days for the Propionobacterium acnes bacterial strain. The contaminated samples are collected and then deposited in serial dilutions in microtiter plates, in the presence of culture medium, which is a saline solution with 0.85% sodium chloride, and a dehydrogenase activity indicator reagent, which is 2,3,5-triphenyltetrazolium chloride (denoted TTC). The results are presented in the following pages with the variation of the microbial population over the 28 days of study, for the tested microbial strain. The measurements of microbial populations in the samples collected at each time, are carried out according to the following microtiter method, for one sample collection. In the 96 wells with a volume of 250 μL of a microtiter plate, 20 μL of the collected sample are diluted by a factor of 10 by dispersion in 180 μL of Letheen broth (Difco, ref. 268110) containing 1.5% of Tween 80 (Sigma, ref. […]) and TTC (Sigma, ref. […]). The microplate is incubated for 48 hours at 32.5° C., and the growth of the microorganisms is monitored by the color change, from colorless to red/pink. The highest reciprocal dilution indicating a growth makes it possible to determine the log number of each microorganism at each time. The measurements of microbial populations taken at each collection time are expressed as colony forming units/ml.

[2] = system: Corynobacterium xerosis strain; assay: Example 3: microbial population count over 28 days after contamination (microtiter method, TTC); format: cell-based, Corynebacterium xerosis; details: for Number of colony forming strains after: 24 h / Number of colony forming strains after: 7 days / Number of colony forming strains after: 14 days / Number of colony forming strains after: 21 days / Number of colony forming strains after: 28 days: 22° C.
Protocol: (§1) The samples are prepared under sterile conditions and deposited in microplates (2-ml wells) with the concentrations hereunder. Two analysis controls were produced: a positive control corresponding to 0.5% Phenonip®; a negative control consisting of 0.85% physiological saline solution. Samples and controls are contaminated by three bacterial strains, Staphylococcus epidermidis, Corynebacterium xerosis and Propionobacterium acnes, with around 1.43×10^5 to 4.15×10^5 colony forming units per milliliter, denoted cfu/ml. After contamination, the samples are carefully mixed by suction-discharge cycles in order to ensure a uniform distribution of the microorganism. The whole is incubated at 22° C. during 28 days. The microbial population is sampled and counted at 24 hours, 7, 14, 21 and 28 days for each bacterial strain. The contaminated samples are collected and then deposited in serial dilutions in microtiter plates, in the presence of culture medium, which is a saline solution with 0.85% sodium chloride, and a dehydrogenase activity indicator reagent, which is 2,3,5-triphenyltetrazolium chloride (denoted TTC). The results are presented in the following pages with the variation of the microbial population over the 28 days of study, for the tested microbial strain. The measurements of microbial populations in the samples collected at each time, are carried out according to the following microtiter method, for one sample collection. In the 96 wells with a volume of 250 μL of a microtiter plate, 20 μL of the collected sample are diluted by a factor of 10 by dispersion in 180 μL of Letheen broth (Difco, ref. 268110) containing 1.5% of Tween 80 (Sigma, ref. […]) and TTC (Sigma, ref. […]). The microplate is incubated for 48 hours at 32.5° C., and the growth of the microorganisms is monitored by the color change, from colorless to red/pink. The highest reciprocal dilution indicating a growth makes it possible to determine the log number of each microorganism at each time. The measurements of microbial populations taken at each collection time are expressed as colony forming units/ml.

[3] = system: Propionobacterium acnes strain; assay: as above; format: cell-based; details: for Number of colony forming strains after: 24 h / Number of colony forming strains after: 7 days / Number of colony forming strains after: 14 days / Number of colony forming strains after: 21 days / Number of colony forming strains after: 28 days: 22° C.
Protocol: as §1

[4] = system: Staphylococcus epidermidis strain; assay: as above; format: cell-based; details: for Number of colony forming strains after: 24 h / Number of colony forming strains after: 7 days / Number of colony forming strains after: 14 days / Number of colony forming strains after: 21 days / Number of colony forming strains after: 28 days: 22° C.
Protocol: as §1

Aspergillus brasiliensis = details: U.S. Pat. No. 9,295,626, table 2; cited from earlier work
Candida albicans = details: U.S. Pat. No. 9,295,626, table 2; cited from earlier work
[5] = after 24 hours, for the three doses tested

What does the source list for O[C@@H]1CO[C@H]2[C@@H]1OC[C@@H]2O [isosorbide, 1,4-3,6-dianhydrosorbitol]?
bactericidal effect (conclusion in words) ([1]; Example 1): bactericide; colony forming strain observed ([1]; after 24 hours, Example 1): no colony forming strain is observed; Number of colony forming strains after: 24 h ([1]; dose 1%): 0 colony forming units/ml; Number of colony forming strains after: 7 days ([1]; dose 1%): 0 colony forming units/ml; Number of colony forming strains after: 14 days ([1]; dose 1%): 0 colony forming units/ml; Number of colony forming strains after: 21 days ([1]; dose 1%): 0 colony forming units/ml; Number of colony forming strains after: 28 days ([1]; dose 1%): 0 colony forming units/ml; Number of colony forming strains after: 24 h ([1]; dose 5%): 0 colony forming units/ml; Number of colony forming strains after: 7 days ([1]; dose 5%): 0 colony forming units/ml; Number of colony forming strains after: 14 days ([1]; dose 5%): 0 colony forming units/ml; Number of colony forming strains after: 21 days ([1]; dose 5%): 0 colony forming units/ml; Number of colony forming strains after: 28 days ([1]; dose 5%): 0 colony forming units/ml; Number of colony forming strains after: 24 h ([1]; dose 9%): 0 colony forming units/ml; Number of colony forming strains after: 7 days ([1]; dose 9%): 0 colony forming units/ml; Number of colony forming strains after: 14 days ([1]; dose 9%): 0 colony forming units/ml; Number of colony forming strains after: 21 days ([1]; dose 9%): 0 colony forming units/ml; Number of colony forming strains after: 28 days ([1]; dose 9%): 0 colony forming units/ml; bactericidal effect (conclusion in words) [2]: moderate bactericide; reduction of the number of colony forming strains [2, 5]: at least 3 log 10; colony forming strain observed ([2]; after 7 days): not any more colony forming strain; Number of colony forming strains after: 24 h ([2]; dose 1%): 4 × 10^2 colony forming units/ml; Number of colony forming strains after: 7 days ([2]; dose 1%): 0 colony forming units/ml; Number of colony forming strains after: 14 days ([2]; dose 1%): 0 colony forming units/ml; Number of colony forming strains after: 21 days ([2]; dose 1%): 0 colony forming units/ml; Number of colony forming strains after: 28 days ([2]; dose 1%): 0 colony forming units/ml; Number of colony forming strains after: 24 h ([2]; dose 5%): 1 × 10^2 colony forming units/ml; Number of colony forming strains after: 7 days ([2]; dose 5%): 0 colony forming units/ml; Number of colony forming strains after: 14 days ([2]; dose 5%): 0 colony forming units/ml; Number of colony forming strains after: 21 days ([2]; dose 5%): 0 colony forming units/ml; Number of colony forming strains after: 28 days ([2]; dose 5%): 0 colony forming units/ml; Number of colony forming strains after: 24 h ([2]; dose 9%): 3.7 × 10^2 colony forming units/ml; Number of colony forming strains after: 7 days ([2]; dose 9%): 0 colony forming units/ml; Number of colony forming strains after: 14 days ([2]; dose 9%): 0 colony forming units/ml; Number of colony forming strains after: 21 days ([2]; dose 9%): 0 colony forming units/ml; Number of colony forming strains after: 28 days ([2]; dose 9%): 0 colony forming units/ml; bactericidal effect (conclusion in words) ([3]; Example 3): bactericide; colony forming strain observed ([3]; after 24 hours, Example 3): no colony forming strain is observed; Number of colony forming strains after: 24 h ([3]; dose 1%): 0 colony forming units/ml; Number of colony forming strains after: 7 days ([3]; dose 1%): 0 colony forming units/ml; Number of colony forming strains after: 14 days ([3]; dose 1%): 0 colony forming units/ml; Number of colony forming strains after: 21 days ([3]; dose 1%): 0 colony forming units/ml; Number of colony forming strains after: 28 days ([3]; dose 1%): 0 colony forming units/ml; Number of colony forming strains after: 24 h ([3]; dose 5%): 0 colony forming units/ml; Number of colony forming strains after: 7 days ([3]; dose 5%): 0 colony forming units/ml; Number of colony forming strains after: 14 days ([3]; dose 5%): 0 colony forming units/ml; Number of colony forming strains after: 21 days ([3]; dose 5%): 0 colony forming units/ml; Number of colony forming strains after: 28 days ([3]; dose 5%): 0 colony forming units/ml; Number of colony forming strains after: 24 h ([3]; dose 9%): 0 colony forming units/ml; Number of colony forming strains after: 7 days ([3]; dose 9%): 0 colony forming units/ml; Number of colony forming strains after: 14 days ([3]; dose 9%): 0 colony forming units/ml; Number of colony forming strains after: 21 days ([3]; dose 9%): 0 colony forming units/ml; Number of colony forming strains after: 28 days ([3]; dose 9%): 0 colony forming units/ml; bactericidal effect (conclusion in words) [4]: weak bactericide; reduction of the number of colony forming strains [4, 5]: at least 2 log 10; colony forming strain observed ([4]; after 7 days): not any colony forming strain; Number of colony forming strains after: 24 h ([4]; dose 1%): 4 × 10^3 colony forming units/ml; Number of colony forming strains after: 7 days ([4]; dose 1%): 0 colony forming units/ml; Number of colony forming strains after: 14 days ([4]; dose 1%): 0 colony forming units/ml; Number of colony forming strains after: 21 days ([4]; dose 1%): 0 colony forming units/ml; Number of colony forming strains after: 28 days ([4]; dose 1%): 0 colony forming units/ml; Number of colony forming strains after: 24 h ([4]; dose 5%): 1 × 10^3 colony forming units/ml; Number of colony forming strains after: 7 days ([4]; dose 5%): 0 colony forming units/ml; Number of colony forming strains after: 14 days ([4]; dose 5%): 0 colony forming units/ml; Number of colony forming strains after: 21 days ([4]; dose 5%): 0 colony forming units/ml; Number of colony forming strains after: 28 days ([4]; dose 5%): 0 colony forming units/ml; Number of colony forming strains after: 24 h ([4]; dose 9%): 7 × 10^2 colony forming units/ml; Number of colony forming strains after: 7 days ([4]; dose 9%): 0 colony forming units/ml; Number of colony forming strains after: 14 days ([4]; dose 9%): 0 colony forming units/ml; Number of colony forming strains after: 21 days ([4]; dose 9%): 0 colony forming units/ml; Number of colony forming strains after: 28 days ([4]; dose 9%): 0 colony forming units/ml; minimum inhibitory concentration (Aspergillus brasiliensis): 10%; minimum inhibitory concentration (Candida albicans): 10%
